Assay results as given in patent publication US9096596B2 (Janssen Pharmaceutica NV, priority 2013, dated 2015).
Read-outs that look alike come from different tables or passages of the source.

What was measured:
P2X7 [1] = molecular target: T1, P2X7 (Homo sapiens (Human), UniProt Q99572); assay: Radioligand binding, human P2X7-1321N1 cell membranes, tracer tritiated A-804598
Method: On the day of the experiment, cell membrane preparations were made according to standard published methods. […] The compound can be prepared as described in the literature. […] The assay was terminated by filtration (GF/B filters pre-soaked with 0.3% PEI) and washed with washing buffer (Tris-HCl 50 mM). The IC50 generated in the binding assay was corrected for tracer concentration and affinity of the tracer to derive at the affinity (Ki) of the test compounds.

P2X7 [2] = molecular target: T1, P2X7; assay: Ca2+ flux (FLIPR) in 1321N1 cells expressing recombinant human P2X7 channel; type: cell-based; details: 250 μM BzATP, Calcium-4 dye
Method: (§1) 1321N1 cells expressing the recombinant human, rat or mouse P2X7 channel was cultured in HyQ DME/(HyClone/Dulbecco's Modified Eagle Medium) high glucose supplemented with 10% Fetal Bovine Serum (FBS) and appropriate selection marker. Cells were seeded at a density of 25000 cells/well (96-well clear bottom black walled plates) in 100 μl volume/well. On the day of the experiment, cell plates were washed with assay buffer, containing (in mM): 130 NaCl, 2 KCl, 1 CaCl2, 1 MgCl2, 10 HEPES, 5 glucose; pH 7.40 and 300 mOs. After the wash, cells were loaded with the Calcium-4 dye (Molecular Device) and incubated in the dark for 60 minutes. Test compounds were prepared at 250× the test concentration in neat DMSO. Intermediate 96-well compound plates were prepared by transferring 1.2 μL of the compound into 300 μL of assay buffer. A further 3× dilution occurred when transferring 50 μL/well of the compound plate to 100 μL/well in the cell plate. Cells were incubated with test compounds and dye for 30 minutes. […] The fluorescence change was measured 180 seconds after adding the agonist.

P2X7 [3] = molecular target: T1, P2X7; assay: P2X7 antagonism in human PBMCs (IL-1β release, ELISA); type: cell-based; details: test compound 10 μM, IL-1β release in human PBMCs, LPS 30 ng/ml + Bz-ATP 0.5 mM, read-out: PBMC 10 μM (% control)
Method: Human blood was collected using a blood donor program. […] Cells were incubated for an additional 1.5 hours. […] In Table 2, when the data cell has been left blank, it is intended to mean that the compound was not tested in that assay.

rat P2X7 = rat P2X7 (Rattus norvegicus (Rat), UniProt Q64663); assay: Ca2+ flux (FLIPR) in 1321N1 cells expressing recombinant rat P2X7 channel; type: cell-based; details: 250 μM BzATP, Calcium-4 dye
Method: as §1

[4] = human P2X7-1321N1 membranes, 1 hour at 4° C., IC50 corrected for tracer concentration and affinity

rat P2X7, sequence (Q64663 whole entry): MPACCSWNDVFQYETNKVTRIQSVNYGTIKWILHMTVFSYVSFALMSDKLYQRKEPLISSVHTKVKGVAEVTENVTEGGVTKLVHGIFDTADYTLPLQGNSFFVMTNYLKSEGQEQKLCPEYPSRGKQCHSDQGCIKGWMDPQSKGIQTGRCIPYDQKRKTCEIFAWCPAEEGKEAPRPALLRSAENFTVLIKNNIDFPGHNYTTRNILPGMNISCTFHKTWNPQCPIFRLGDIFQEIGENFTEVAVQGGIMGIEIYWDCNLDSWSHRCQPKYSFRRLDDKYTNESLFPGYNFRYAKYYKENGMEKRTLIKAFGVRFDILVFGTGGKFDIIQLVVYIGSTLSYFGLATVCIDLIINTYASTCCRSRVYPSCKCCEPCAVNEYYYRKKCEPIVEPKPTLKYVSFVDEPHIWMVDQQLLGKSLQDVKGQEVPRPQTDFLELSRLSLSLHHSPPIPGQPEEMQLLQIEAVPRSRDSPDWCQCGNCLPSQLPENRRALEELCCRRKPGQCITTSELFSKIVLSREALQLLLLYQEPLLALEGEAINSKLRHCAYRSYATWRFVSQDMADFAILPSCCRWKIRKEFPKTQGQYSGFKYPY
T1 sequence (Q99572 whole entry): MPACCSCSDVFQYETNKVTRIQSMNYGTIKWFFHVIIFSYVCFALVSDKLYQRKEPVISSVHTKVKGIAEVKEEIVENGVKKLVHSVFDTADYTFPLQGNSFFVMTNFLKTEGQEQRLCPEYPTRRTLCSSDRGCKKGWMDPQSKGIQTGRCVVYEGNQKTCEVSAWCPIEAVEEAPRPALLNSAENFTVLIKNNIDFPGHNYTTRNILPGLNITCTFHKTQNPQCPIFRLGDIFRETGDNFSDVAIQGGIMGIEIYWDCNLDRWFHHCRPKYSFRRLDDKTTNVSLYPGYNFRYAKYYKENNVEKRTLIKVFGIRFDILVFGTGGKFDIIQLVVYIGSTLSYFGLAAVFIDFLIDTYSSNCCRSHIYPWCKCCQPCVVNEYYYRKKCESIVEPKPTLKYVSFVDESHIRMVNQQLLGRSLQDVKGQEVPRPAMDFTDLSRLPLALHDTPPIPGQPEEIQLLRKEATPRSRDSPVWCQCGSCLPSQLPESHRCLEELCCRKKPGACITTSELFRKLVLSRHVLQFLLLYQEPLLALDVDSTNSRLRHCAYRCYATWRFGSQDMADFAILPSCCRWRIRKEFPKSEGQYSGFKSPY

Row | Ki (P2X7 [1]; [4]) [µM] | IC50 (P2X7 [2]) [µM] | remaining activity at 10 µM (P2X7 [3]) [%] | Ki (P2X7 [1]) [µM] | IC50 (rat P2X7) [µM] | SMILES
1 | 0.0776 | 0.0634 | – | – | – | O=C(c1cccc(Cl)c1Cl)N1CCc2c(ncnc2-c2nccs2)C1 [Example 38, 7-[(2,3-Dichlorophenyl)carbonyl]-4-(1,3-thiazol-2-yl)-5,6,7,8-tetrahydropyrido[3,4-d]pyrimidine]
2 | 0.0794 | 0.0655 | 10.8 | – | – | O=C(c1cccc(C(F)(F)F)c1Cl)N1CCc2c(nc(C(F)(F)F)nc2-c2ccn[nH]2)C1 [Example 60, (4-(1H-pyrazol-5-yl)-2-(trifluoromethyl)-5,6-dihydropyrido[3,4-d]pyrimidin-7(8H)-yl)(2-chloro-3-(trifluoromethyl)phenyl)methanone]
3 | – | 0.0136 | – | 0.0079 | – | Cc1nc2c(c(-c3ccn[nH]3)n1)C[C@@H](C)N(C(=O)c1cccc(C(F)(F)F)c1C)C2 (single isomer, unassigned) [Example 78, (R*)-(2,6-dimethyl-4-(1H-pyrazol-5-yl)-5,6-dihydropyrido[3,4-d]pyrimidin-7(8H)-yl)(2-methyl-3-(trifluoromethyl)phenyl)methanone]
4 | 0.1 | 0.021 | 5 | – | 0.556 | CN(C)c1nc2c(c(-c3ccn[nH]3)n1)CCN(C(=O)c1cccc(C(F)(F)F)c1Cl)C2 [Example 54, 7-{[2-Chloro-3-(trifluoromethyl)phenyl]carbonyl}-N,N-dimethyl-4-(1H-pyrazol-5-yl)-5,6,7,8-tetrahydropyrido[3,4-d]pyrimidin-2-amine]
5 | 0.224 | 0.0299 | – | – | 1.27 | O=C(c1cccc(C(F)(F)F)c1Cl)N1CCc2c(ncnc2-c2ccccc2)C1 [Example 1, 7-{[2-Chloro-3-(trifluoromethyl)phenyl]carbonyl}-4-phenyl-5,6,7,8-tetrahydropyrido[3,4-d]pyrimidine]
6 | – | 11.4 | 7.3 | – | > 10 | Cc1ccc(C(=O)N2Cc3nc(C)nc(-c4ccn[nH]4)c3CC2C)c(C)c1 (stereo not drawn) [Example 131, (2,6-dimethyl-4-(1H-pyrazol-5-yl)-5,6-dihydropyrido[3,4-d]pyrimidin-7(8H)-yl)(2,4-dimethylphenyl)methanone]
7 | 0.0501 | 0.0121 | – | – | – | O=C(c1cccc(C(F)(F)F)c1Cl)N1CCc2c(ncnc2-c2nccs2)C1 [Example 37, 7-{[2-Chloro-3-(trifluoromethyl)phenyl]carbonyl}-4-(1,3-thiazol-2-yl)-5,6,7,8-tetrahydropyrido[3,4-d]pyrimidine]
8 | 0.0316 | 0.0336 | 0.4 | – | – | Cc1nc2c(c(-c3ccn[nH]3)n1)CC(C)N(C(=O)c1ccc(Cl)cc1F)C2 (stereo not drawn) [Example 87, (4-chloro-2-fluorophenyl)(2,6-dimethyl-4-(1H-pyrazol-5-yl)-5,6-dihydropyrido[3,4-d]pyrimidin-7(8H)-yl)methanone]
9 | – | 13.2 | 20.4 | – | > 10 | O=C(c1cc(F)c(F)cc1Cl)N1CCc2c(ncnc2-c2cnccn2)C1 [Example 16, 7-[(2-Chloro-4,5-difluorophenyl)carbonyl]-4-pyrazin-2-yl-5,6,7,8-tetrahydropyrido[3,4-d]pyrimidine]
10 | 0.2 | 0.166 | -3.1 | – | 14 | Cc1nc2c(c(-c3ccn[nH]3)n1)CC(C)N(C(=O)c1ccccc1Cl)C2 (stereo not drawn) [Example 97, (2-chlorophenyl)(2,6-dimethyl-4-(1H-pyrazol-5-yl)-5,6-dihydropyrido[3,4-d]pyrimidin-7(8H)-yl)methanone]
11 | 2 | 5.01 | – | – | 10 | Cc1nc2c(c(-n3ccnn3)n1)CCN(C(=O)c1cccc(C(F)(F)F)c1Cl)C2 [Example 48, 7-{[2-Chloro-3-(trifluoromethyl)phenyl]carbonyl}-2-methyl-4-(1H-1,2,3-triazol-1-yl)-5,6,7,8-tetrahydropyrido[3,4-d]pyrimidine]
12 | 0.427 | 0.117 | – | – | 4.55 | Cc1nc2c(c(-c3ccccc3)n1)CCN(C(=O)c1cccc(Cl)c1Cl)C2 [Example 27, 7-[(2,3-Dichlorophenyl)carbonyl]-2-methyl-4-phenyl-5,6,7,8-tetrahydropyrido[3,4-d]pyrimidine]
13 | 0.0398 | – | 2.5 | – | – | O=C(c1ccc(F)c(Cl)c1Cl)N1CCc2c(ncnc2-c2cccc(F)n2)C1 [Example 129, (2,3-dichloro-4-fluorophenyl)(4-(6-fluoropyridin-2-yl)-5,6-dihydropyrido[3,4-d]pyrimidin-7(8H)-yl)methanone]
14 | 0.0224 | 0.316 | -4.1 | – | 0.0025 | CC1Cc2c(nc(N)nc2-c2ccn[nH]2)CN1C(=O)c1cccc(C(F)(F)F)c1Cl (stereo not drawn) [Example 63, (2-amino-6-methyl-4-(1H-pyrazol-5-yl)-5,6-dihydropyrido[3,4-d]pyrimidin-7(8H)-yl)(2-chloro-3-(trifluoromethyl)phenyl)methanone]
15 | – | 0.448 | -1.2 | – | 3.11 | Cc1nc2c(c(-c3ccn[nH]3)n1)CC(C)N(C(=O)c1cccc(C#N)c1C)C2 (stereo not drawn) [Example 61, 3-(2,6-dimethyl-4-(1H-pyrazol-5-yl)-5,6,7,8-tetrahydropyrido[3,4-d]pyrimidine-7-carbonyl)-2-methylbenzonitrile]
16 | 0.0398 | 0.28 | -15.5 | – | – | O=C(c1ccc(F)cc1Cl)N1CCc2c(ncnc2-c2ccn[nH]2)C1 [Example 21]
17 | 0.0631 | 0.0348 | – | – | 0.156 | Cc1nc2c(c(-c3cscn3)n1)CCN(C(=O)c1cccc(C(F)(F)F)c1Cl)C2 [Example 44, 7-{[2-Chloro-3-(trifluoromethyl)phenyl]carbonyl}-2-methyl-4-(1,3-thiazol-4-yl)-5,6,7,8-tetrahydropyrido[3,4-d]pyrimidine]
18 | 0.0794 | 0.02 | – | – | – | O=C(c1cccc(C(F)(F)F)c1Cl)N1CCc2c(ncnc2-c2ccc[nH]2)C1 [Example 42, 7-{[2-Chloro-3-(trifluoromethyl)phenyl]carbonyl}-4-(1H-pyrrol-2-yl)-5,6,7,8-tetrahydropyrido[3,4-d]pyrimidine]
19 | – | 0.798 | 2.5 | – | 4.25 | Cc1nc2c(c(-c3ccn[nH]3)n1)CC(C)N(C(=O)c1ccc(C#N)cc1C)C2 (stereo not drawn) [Example 3, 4-(2,6-dimethyl-4-(1H-pyrazol-5-yl)-5,6,7,8-tetrahydropyrido[3,4-d]pyrimidine-7-carbonyl)-3-methylbenzonitrile]
20 | – | 0.0172 | – | 0.0115 | – | Cc1nc2c(c(-c3ccn[nH]3)n1)C[C@H](C)N(C(=O)c1ccc(Cl)cc1F)C2 (single isomer, unassigned) [Example 89, (S*)-(4-chloro-2-fluorophenyl)(2,6-dimethyl-4-(1H-pyrazol-5-yl)-5,6-dihydropyrido[3,4-d]pyrimidin-7(8H)-yl)methanone]
21 | – | 0.492 | -1 | – | 1.87 | Cc1nc2c(c(-c3ccn[nH]3)n1)CC(C)N(C(=O)c1cccc(C)c1F)C2 (stereo not drawn) [Example 135, (2,6-dimethyl-4-(1H-pyrazol-5-yl)-5,6-dihydropyrido[3,4-d]pyrimidin-7(8H)-yl)(2-fluoro-3-methylphenyl)methanone]
22 | 0.0631 | 0.0834 | – | – | 1.89 | Cc1nc2c(c(-c3ccn[nH]3)n1)CCN(C(=O)c1ccc(Cl)c(F)c1Cl)C2 [Example 53, 7-[(2,4-Dichloro-3-fluorophenyl)carbonyl]-2-methyl-4-(1H-pyrazol-5-yl)-5,6,7,8-tetrahydropyrido[3,4-d]pyrimidine]
23 | – | 0.0647 | – | 0.0316 | 0.101 | Cc1nc2c(c(-c3ccn[nH]3)n1)C[C@H](C)N(C(=O)c1ccc(F)cc1F)C2 (single isomer, unassigned) [Example 95, (S*)-(2,4-difluorophenyl)(2,6-dimethyl-4-(1H-pyrazol-5-yl)-5,6-dihydropyrido[3,4-d]pyrimidin-7(8H)-yl)methanone]
24 | 0.0316 | 0.0631 | 20.9 | – | – | Cc1nc2c(c(-c3ccn[nH]3)n1)CC(C)N(C(=O)c1cccc(C(F)(F)F)c1C)C2 (stereo not drawn) [Example 77, (2,6-dimethyl-4-(1H-pyrazol-5-yl)-5,6-dihydropyrido[3,4-d]pyrimidin-7(8H)-yl)(2-methyl-3-(trifluoromethyl)phenyl)methanone]
25 | – | 0.532 | -0.1 | – | 7.16 | Cc1nc2c(c(-c3ccn[nH]3)n1)CC(C)N(C(=O)c1cccc(C)c1C)C2 (stereo not drawn) [Example 132, (2,6-dimethyl-4-(1H-pyrazol-5-yl)-5,6-dihydropyrido[3,4-d]pyrimidin-7(8H)-yl)(2,3-dimethylphenyl)methanone]
